Data on three compounds can be found in patent US9289429B2, “Compounds and methods for inhibiting phosphate transport” (Ardelyx, Inc., priority 2010, dated 2016).

The target of data set [1] is T1, rat NaP2b (SLC34A2) (Rattus norvegicus, UniProt Q9JJ09).
T1 construct: host or cells: HEK293
T1 sequence (Q9JJ09 1-695): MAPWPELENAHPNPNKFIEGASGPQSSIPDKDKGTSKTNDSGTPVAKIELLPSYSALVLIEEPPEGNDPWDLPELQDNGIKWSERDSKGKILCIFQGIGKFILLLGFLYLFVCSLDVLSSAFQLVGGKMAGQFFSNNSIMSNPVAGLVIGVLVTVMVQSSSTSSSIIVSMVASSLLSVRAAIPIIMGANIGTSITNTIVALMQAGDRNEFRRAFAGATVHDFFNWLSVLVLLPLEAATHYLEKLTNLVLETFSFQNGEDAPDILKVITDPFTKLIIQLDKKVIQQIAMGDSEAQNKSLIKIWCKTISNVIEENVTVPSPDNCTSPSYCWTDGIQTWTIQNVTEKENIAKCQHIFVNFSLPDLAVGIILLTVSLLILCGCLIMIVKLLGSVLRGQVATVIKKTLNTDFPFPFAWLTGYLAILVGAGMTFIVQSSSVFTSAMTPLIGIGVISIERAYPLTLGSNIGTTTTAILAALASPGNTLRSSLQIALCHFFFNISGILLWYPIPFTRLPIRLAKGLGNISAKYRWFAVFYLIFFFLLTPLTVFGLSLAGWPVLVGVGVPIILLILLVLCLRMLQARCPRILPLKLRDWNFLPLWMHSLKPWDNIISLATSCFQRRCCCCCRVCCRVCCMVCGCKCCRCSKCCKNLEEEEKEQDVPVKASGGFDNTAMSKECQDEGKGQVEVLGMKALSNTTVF
As to the kind of experiment: NaP2b-mediated Pi transport (33P uptake) in transfected HEK293 cells, rat transporter. The class given is cell-based. To be noted: HEK293 cells transfected with rat NaP2b, 33P phosphate uptake, 100 uM KH2PO4; read-out: pIC50 range for rat Nap2b (converted). As to the method:
(§1) HEK293 cells were obtained from the American Type Culture collection and propagated per their instructions. Expression clones for rat and human NaP2b (SLC34A2) were obtained from Open Biosystems (Catalog numbers MRN1768-9510282, and MHS1010-99823026, respectively). The sequence of the human protein was mutated to insert a threonine after residue 37, and to introduce a N39D mutation.
(§2) The rate of phosphate (Pi) uptake into HEK293 cells was measured using a modification of the method described by Mohrmann et al. (Mohrmann, I., Mohrmann, M., Biber, J., and Murer, H. (1986) Am. J. Phys. 250(3 Pt 1):G323-30.) Transfected HEK293 cells were treated with a pharmacological agent to minimize endogenous PiT-mediated phosphate transport activity, such that the only remaining sodium-dependent phosphate transport activity is that which was bestowed by introduction of the NaP2b genes.
(§3) Cells were seeded into 96-well plates at 25,000 cells/well and cultured overnight. Lipofectamine 2000 (Invitrogen) was used to introduce the NaP2b cDNA, and the cells were allowed to approach confluence during a second overnight incubation. […] Cells were then overlayed with either choline uptake buffer or sodium uptake buffer (14 mM Tris, 137 mM sodium chloride, 5.4 mM KCl, 2.8 mM CaCl2, 1.2 mM MgSO4, 100 uM KH2PO4, PiT-silencing agent, 1 mg/mL Bovine Serum Albumin, pH 7.4) containing 6-9 uCi/mL ^33P orthophosphoric acid (Perkin Elmer) and test compound. Each compound was tested at twelve concentrations ranging from 0.1 nM to 30 uM. Assays were run in duplicate.
(§4) After incubation for 3-30 minutes at room temperature, assay mixtures were removed, and the cells were washed twice with ice cold stop solution (137 mM sodium chloride, 14 mM Tris, pH 7.4). Cells were lysed by addition of 20 μL 0.1% Tween 80 followed by 100 μL scintillation fluid, and counted using a TopCount (Perkin Elmer).
(§5) pIC50 (the negative log of the IC50) values of the test compounds were calculated using GraphPad Prism.

Data set [2] can be described thus: Determination of compound Cmax and AUC after oral gavage. In kind it is in vivo. To be noted: Sprague-Dawley, rat plasma, actual oral dose 8.9 mg/kg (Example 11) or 10 mg/kg (Example 2). As to the method:
Sprague-Dawley rats were orally gavaged with test article at a nominal dose of 2.5 or 10 mg/kg and blood was collected at 0.5, 1, 2 and 4 h. Blood samples were processed to plasma using K2EDTA as an anticoaglulant. Plasma samples were treated with acetonitrile containing an internal standard, precipitated proteins removed by centrifugation. Supernatants were analyzed by LC-MS/MS and compound concentrations were determined by interpolated from a standard curve prepared in plasma. All compounds were orally dosed at the dosage shown, and pharmacokinetic parameters determined

Data set [3] can be described thus: Fecal recovery of orally administered compounds. The class given is in vivo. To be noted: rat, oral gavage, feces collected until 48 hr after dosing, same animals as Example 22. As to the method: Quantitative determination of test compound level in feces after oral gavage was performed using the same set of animals used to determine test compound concentration in plasma (Example 22). The animals were kept in metabolic cages and feces were collected from the time of dosing until 48 hr after dosing. Upon collection, feces was dried by lyophilization and ground to a visually homogenous powder. Duplicate samples of ground feces from each individual animal were weighed out and extracted using organic solvent. Extracted samples were then diluted into mobile phase and test compound levels were quantitatively determined by LC-MS/MS analysis as described in “Example 22” except that the standard curve was prepared in a feces matrix. Extraction conditions were not optimized for individual compounds, and thus may represent a minimal level of recovery.

The test system of data set [4] is Sprague-Dawley rats. As to the kind of experiment: In vivo bolus phosphate challenge. To be noted: rat, oral, Drug Dose 30 (unit not given), serum 30 min post phosphate bolus. As to the method: By pretreating animals with a low phosphorus diet followed by the subsequent dosing of a phosphorus bolus, serum phosphorus levels were monitored after 30 minutes as a surrogate for intestinal phosphorus absorption. […] The in vivo bolus phosphorus challenge model used here mimics this model in rats.
Male, 7-week-old Sprague-Dawley rats (Charles-River laboratories international, Hollister, Calif.) were allowed to acclimate for a minimum of 3 days before switching to a synthetic low-phosphorus diet (TD.85010, Harlan Teklad, Madison, Wis.) which contains 0.1% phosphorus and 0.6% calcium. At day 5, testing compounds or vehicle alone (as indicated) were orally administered at the indicated dose in a volume of 5 ml/kg, followed by a bolus gavage of monobasic sodium phosphate (1 mmol in 1 ml) 15 min after compound dosing. Serum was collected via retroorbital bleeding 30 min post phosphate bolus and phosphate levels were determined utilizing an ACE ALERA blood chemistry analyzer (Alfa Wassermann Diagnostic Technologies, West Caldwell, N.J.).
The extent of inhibition by test compounds on the elevation of serum phosphate levels in response to the bolus of phosphate is shown in Table 3 (data are expressed as % Inhibition, with 6-10 animals per data point). The differences between groups were evaluated by one-way analysis of variance with Dunnett's post hoc tests.

In data set [5] the target is T2, human NaP2b (SLC34A2) (Homo sapiens, UniProt O95436).
T2 construct: host or cells: HEK293
T2 sequence (O95436 1-690): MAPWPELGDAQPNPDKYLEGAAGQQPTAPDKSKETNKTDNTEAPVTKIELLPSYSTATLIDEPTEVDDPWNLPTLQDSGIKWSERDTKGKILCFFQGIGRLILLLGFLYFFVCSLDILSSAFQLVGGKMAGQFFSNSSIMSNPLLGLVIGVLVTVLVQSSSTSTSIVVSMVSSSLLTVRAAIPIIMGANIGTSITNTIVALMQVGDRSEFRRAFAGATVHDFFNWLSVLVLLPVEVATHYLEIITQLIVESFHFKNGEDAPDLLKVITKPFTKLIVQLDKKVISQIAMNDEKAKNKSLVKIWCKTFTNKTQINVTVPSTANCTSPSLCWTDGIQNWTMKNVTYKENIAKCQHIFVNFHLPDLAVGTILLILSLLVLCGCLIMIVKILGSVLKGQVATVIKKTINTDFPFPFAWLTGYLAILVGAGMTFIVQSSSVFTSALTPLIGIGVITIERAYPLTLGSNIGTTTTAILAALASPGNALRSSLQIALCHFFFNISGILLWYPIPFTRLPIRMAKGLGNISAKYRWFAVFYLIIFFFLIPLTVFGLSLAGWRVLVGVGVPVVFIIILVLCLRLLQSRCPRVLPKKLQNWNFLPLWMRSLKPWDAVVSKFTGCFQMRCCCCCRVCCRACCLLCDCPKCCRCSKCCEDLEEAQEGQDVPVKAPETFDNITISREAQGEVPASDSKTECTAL
As to the kind of experiment: NaP2b-mediated Pi transport (33P uptake) in transfected HEK293 cells, human transporter. The class given is cell-based. To be noted: HEK293 cells transfected with human NaP2b (Thr inserted after residue 37, N39D), 33P phosphate uptake, 100 uM KH2PO4; read-out: pIC50 range for human Nap2b (converted). As to the method:
as §1, §2, §3, §4, §5

In data set [6] the target is T3, NaPi2b (Rattus norvegicus, UniProt Q9JJ09).
T3 construct: host or cells: HEK293
T3 sequence (Q9JJ09 1-695): T1 sequence (Q9JJ09 1-695)
As to the kind of experiment: Competition with phosphate: Pi transport assay repeated at 2.1 vs 0.1 mM phosphate. The class given is cell-based. To be noted: potency for inhibition of NaPi2b at 2.1 vs 0.1 mM phosphate. As to the method: To ascertain if an inhibitor was competitive for binding with phosphate, the procedure was repeated, but raising the concentration of the substrate in the assay mixture from 0.1 to 2.1 mM phosphate.

On to `O=C(O)CCSCc1cccc(C(=O)Nc2ccc(N3CCCCC3)cc2C(=O)Nc2cnc(-c3ccccc3)nc2)c1` [Example 2, 3-((3-((2-((2-Phenylpyrimidin-5-yl)carbamoyl)-4-(piperidin-1-yl)phenyl)carbamoyl)benzyl)thio)propanoic acid], for which the IC50 in data set [1] is 1000 to 7940 nM. Besides, in data set [2] (LLOQ 5 ng/mL), the concentration peaked (Cmax) at 645 ng/mL. For the same compound, the AUC (as a rule, the area under the concentration-time curve, a measure of exposure) in data set [2] (samples 0.5-4 h) is 822 ng·h/mL. Moreover, the “% recovered in feces” value in data set [3] came out at 16%.

For the compound `O=C(O)CCSCc1cccc(C(=O)Nc2ccc(N3CCCCC3)cc2C(=O)Nc2cnc(-c3cccc(C(F)(F)F)c3)nc2)c1` [Example 4, 3-((3-((4-(Piperidin-1-yl)-2-((2-(3-(trifluoromethyl)phenyl)pyrimidin-5-yl)carbamoyl)phenyl)carbamoyl)benzyl)thio)propanoic acid], the IC50 in data set [1] is 1000 to 7940 nM. Moreover, in data set [4], the “% Inhibition of Serum P elevation” value came to 11%.

As for `CN(CCN1CCOCC1)C(=O)c1cccc(C(=O)Nc2ccc(N3CCCCC3)cc2C(=O)Nc2cnc(-c3ccccc3)nc2)c1` [Example 11, N1-Methyl-N1-(2-morpholinoethyl)-N3-(2-((2-phenylpyrimidin-5-yl)carbamoyl)-4-(piperidin-1-yl)phenyl)isophthalamide], the IC50 in data set [1] and in data set [5] was < 1000 nM each time. Also, the “Competitive with respect to Pi?” value in data set [6] is reported as “No”. Also, the “% recovered in feces” value in data set [3] is given as 26%.
